Experimental data reported in patent publication US20250206738A1, “WRN INHIBITORS” (Nimbus Wadjet, Inc., priority 2023, published 2025).

Legend:
[1] = test system: p21 induction in HCT 116 cells; assay: p21 induction in cells (In-Cell Western, p21/GAPDH ratio); type: cell-based; details: Homo sapiens, HCT-116, 24 h, 24 h compound incubation, read-out: P21_EC50
In short: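 HCT 116 cells treated 24 h at 37° C with 11-point, 2-fold dilutions starting typically at 10 μM, in duplicate. Fixed cells immunostained for p21 and GAPDH; 800/700 nm ratio normalised between DMSO and reference WRN inhibitor controls as percent activation. EC50 from non-linear regression.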

[2] = target: T1, human Werner helicase (WRN, Uniprot Q14191, amino acids 517-1235 with L1074F point mutation; WRN-BV08) (Homo sapiens, UniProt Q14191, L1074F); assay: WRN (BV08) ADP-Glo assay; type: biochemical; details: WRN-BV08 (aa 517-1235, L1074F); read-out: ADP-Glo_hWRN_IC50
T1 construct: Uniprot Q14191, amino acids 517-1235 with L1074F point mutation; 8xHis (C, cleaved yes); TEV cleavage site (ENLYFQG) (C, cleaved yes); made in house; host or cells: Sf9 insect cells (baculovirus, pFastBac)
T1 sequence (Q14191 with tags, fused parts or gaps L1074F): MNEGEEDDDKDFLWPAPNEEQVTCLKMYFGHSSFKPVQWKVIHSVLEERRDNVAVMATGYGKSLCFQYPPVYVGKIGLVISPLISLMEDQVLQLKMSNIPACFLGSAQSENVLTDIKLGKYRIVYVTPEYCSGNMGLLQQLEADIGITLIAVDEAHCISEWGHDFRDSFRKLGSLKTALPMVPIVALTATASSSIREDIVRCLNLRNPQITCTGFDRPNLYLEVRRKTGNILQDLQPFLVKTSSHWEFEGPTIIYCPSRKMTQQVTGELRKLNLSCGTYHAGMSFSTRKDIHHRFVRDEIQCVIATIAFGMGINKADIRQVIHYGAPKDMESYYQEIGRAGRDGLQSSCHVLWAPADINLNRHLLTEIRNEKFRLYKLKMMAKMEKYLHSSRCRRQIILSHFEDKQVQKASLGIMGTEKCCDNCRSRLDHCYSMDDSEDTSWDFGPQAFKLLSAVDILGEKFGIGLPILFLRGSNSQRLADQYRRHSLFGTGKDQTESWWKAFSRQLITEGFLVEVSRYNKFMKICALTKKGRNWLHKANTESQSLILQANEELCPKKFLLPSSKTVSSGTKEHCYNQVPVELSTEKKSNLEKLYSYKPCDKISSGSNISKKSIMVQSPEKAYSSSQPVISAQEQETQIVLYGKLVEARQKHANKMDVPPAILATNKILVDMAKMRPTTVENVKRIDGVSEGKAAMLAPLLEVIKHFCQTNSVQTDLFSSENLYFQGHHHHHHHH
In short: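 WRN 517-1235 (L1074F, untagged, Sf9-expressed), 0.15 nM, preincubated with compound 15 min at 25 °C, then 60 min with […] and 0.1 nM DNA duplex in Bicine pH 7.5, 1 mM MgCl2, 1% DMSO. ADP-Glo luminescence; % inhibition vs NSC-617145 control, four-parameter IC50 fit.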

SMILES	EC50 [1]	IC50 [2]
CCc1c(N2CCN(C(=O)c3ncc4c(c3O)CCO4)CC2)c(=O)n2nc(C3=CCOCC3)nc2n1CC(=O)NC12CC(C(C)(F)F)(C1)C2 [I-7, N-(3-(1,1-difluoroethyl)bicyclo[1.1.1]pentan-1-yl)-2-(2-(3,6-dihydro-2H-pyran-4-yl)-5-ethyl-6-(4-(4-hydroxy-2,3-dihydrofuro[2,3-c]pyridine-5-carbonyl)piperazin-1-yl)-7-oxo-[1,2,4]triazolo[1,5-a]pyrimidin-4(7H)-yl)acetamide]	2 to 5 µM	0.005 to 0.05 µM
CCc1c(N2CCN(C(=O)c3c(O)ccc4ncoc34)CC2)c(=O)n2nc(-c3ccnc(OC)c3)nc2n1CC(=O)NC12CC(C(C)C)(C1)C2 [I-35, 2-(5-ethyl-6-(4-(6-hydroxybenzo[d]oxazole-7-carbonyl)piperazin-1-yl)-2-(2-methoxypyridin-4-yl)-7-oxo-[1,2,4]triazolo[1,5-a]pyrimidin-4(7H)-yl)-N-(3-isopropylbicyclo[1.1.1]pentan-1-yl)acetamide]	≤ 0.5 µM	≤ 0.005 µM
CCc1c(N2CCN(C(=O)c3ncnc(C)c3O)CC2)c(=O)c2sc(-c3ccnc(OC)c3)nc2n1CC(=O)NC12CC(C(F)(F)F)(C1)C2 [I-25, 2-(5-ethyl-6-(4-(5-hydroxy-6-methylpyrimidine-4-carbonyl)piperazin-1-yl)-2-(2-methoxypyridin-4-yl)-7-oxothiazolo[4,5-b]pyridin-4(7H)-yl)-N-(3-(trifluoromethyl)bicyclo[1.1.1]pentan-1-yl)acetamide]	> 5 µM	0.005 to 0.05 µM
CCc1c(N2CCN(C(=O)c3cccc(N4CCN(C)CC4)c3)[C@H]3CC[C@@H]32)c(=O)c2nn(C3=CCOCC3)nc2n1CC(=O)NC12CC(C(C)C)(C1)C2 [I-201, 2-(2-(3,6-dihydro-2H-pyran-4-yl)-5-ethyl-6-((1S,6S)-5-(3-(4-methylpiperazin-1-yl)benzoyl)-2,5-diazabicyclo[4.2.0]octan-2-yl)-7-oxo-2,7-dihydro-4H-[1,2,3]triazolo[4,5-b]pyridin-4-yl)-N-(3-isopropylbicyclo[1.1.1]pentan-1-yl)acetamide]	0.5 to 2 µM	≤ 0.005 µM
CCc1c(N2CCN(C(=O)c3c(O)ccc4ncoc34)CC2)c(=O)n2nc(C3=CCOCC3)nc2n1CC(=O)NC12CC(C(C)C)(C1)C2 [I-42, 2-(2-(3,6-dihydro-2H-pyran-4-yl)-5-ethyl-6-(4-(6-hydroxybenzo[d]oxazole-7-carbonyl)piperazin-1-yl)-7-oxo-[1,2,4]triazolo[1,5-a]pyrimidin-4(7H)-yl)-N-(3-isopropylbicyclo[1.1.1]pentan-1-yl)acetamide]	≤ 0.5 µM	0.005 to 0.05 µM
CCc1c(N2CCN(C(=O)c3c(OC)cccc3B(O)O)[C@H]3CC[C@@H]32)c(=O)c2nn(C3=CCOCC3)nc2n1CC(=O)NC12CC(C(C)C)(C1)C2 [I-204, (2-((1S,6S)-5-(2-(3,6-dihydro-2H-pyran-4-yl)-5-ethyl-4-(2-((3-isopropylbicyclo[1.1.1]pentan-1-yl)amino)-2-oxoethyl)-7-oxo-4,7-dihydro-2H-[1,2,3]triazolo[4,5-b]pyridin-6-yl)-2,5-diazabicyclo[4.2.0]octane-2-carbonyl)-3-methoxyphenyl)boronic acid]	≤ 0.5 µM	0.005 to 0.05 µM
CCc1c(N2CCN(C(=O)c3c(O)ccc4ncoc34)CC2)c(=O)n2nc(-c3ccnc(OC)c3)nc2n1CC(=O)NC12CC(C3CC3)(C1)C2 [I-36, N-(3-cyclopropylbicyclo[1.1.1]pentan-1-yl)-2-(5-ethyl-6-(4-(6-hydroxybenzo[d]oxazole-7-carbonyl)piperazin-1-yl)-2-(2-methoxypyridin-4-yl)-7-oxo-[1,2,4]triazolo[1,5-a]pyrimidin-4(7H)-yl)acetamide]	≤ 0.5 µM	≤ 0.005 µM

Other lines, results leading:

EC50 [1]	IC50 [2]	SMILES
≤ 0.5 µM	0.005 to 0.05 µM	CCc1c(N2CCN(C(=O)c3ncnc(C)c3O)[C@H]3CC[C@@H]32)c(=O)n2nc(C3=CCOCC3)nc2n1CC(=O)NC12CC(C3CC3)(C1)C2 [I-225, N-(3-cyclopropylbicyclo[1.1.1]pentan-1-yl)-2-(2-(3,6-dihydro-2H-pyran-4-yl)-5-ethyl-6-((1S,6S)-5-(5-hydroxy-6-methylpyrimidine-4-carbonyl)-2,5-diazabicyclo[4.2.0]octan-2-yl)-7-oxo-[1,2,4]triazolo[1,5-a]pyrimidin-4(7H)-yl)acetamide]
≤ 0.5 µM	0.005 to 0.05 µM	CCc1c(N2CCN(C(=O)c3ncnc(C)c3O)[C@H]3CC[C@@H]32)c(=O)n2nc(-c3ccnc(OC)c3)nc2n1CC(=O)NC12CC(C3CC3)(C1)C2 [I-208, N-(3-cyclopropylbicyclo[1.1.1]pentan-1-yl)-2-(5-ethyl-6-((1S,6S)-5-(5-hydroxy-6-methylpyrimidine-4-carbonyl)-2,5-diazabicyclo[4.2.0]octan-2-yl)-2-(2-methoxypyridin-4-yl)-7-oxo-[1,2,4]triazolo[1,5-a]pyrimidin-4(7H)-yl)acetamide]
0.5 to 2 µM	0.005 to 0.05 µM	CCc1c(N2CCN(C(=O)c3ncnc(C)c3O)[C@H]3CC[C@@H]32)c(=O)c2nc(C)c(C)nc2n1CC(=O)NC12CC(C3CCC3)(C1)C2 [I-210, N-(3-cyclobutylbicyclo[1.1.1]pentan-1-yl)-2-(6-ethyl-7-((1S,6S)-5-(5-hydroxy-6-methylpyrimidine-4-carbonyl)-2,5-diazabicyclo[4.2.0]octan-2-yl)-2,3-dimethyl-8-oxopyrido[2,3-b]pyrazin-5(8H)-yl)acetamide]
> 5 µM	0.05 to 0.1 µM	CCc1c(N2CCN(C(=O)c3c(O)ccnc3OC)CC2)c(=O)n2nc(C3=CCOCC3)nc2n1CC(=O)NC12CC(C(F)(F)F)(C1)C2 [I-239, 2-(2-(3,6-dihydro-2H-pyran-4-yl)-5-ethyl-6-(4-(4-hydroxy-2-methoxynicotinoyl)piperazin-1-yl)-7-oxo-[1,2,4]triazolo[1,5-a]pyrimidin-4(7H)-yl)-N-(3-(trifluoromethyl)bicyclo[1.1.1]pentan-1-yl)acetamide]
> 5 µM	0.1 to 0.5 µM	CCc1c(N2CCN(C(=O)c3c(O)ccc4ncoc34)CC2)c(=O)n2nc(-c3ccnc(OC)c3)nc2n1CC(=O)NC12CC(OC)(C1)C2 [I-241, 2-(5-ethyl-6-(4-(6-hydroxybenzo[d]oxazole-7-carbonyl)piperazin-1-yl)-2-(2-methoxypyridin-4-yl)-7-oxo-[1,2,4]triazolo[1,5-a]pyrimidin-4(7H)-yl)-N-(3-methoxybicyclo[1.1.1]pentan-1-yl)acetamide]
≤ 0.5 µM	0.005 to 0.05 µM	CCc1c(N2CCN(C(=O)c3ncnc(C)c3O)[C@H]3CC[C@@H]32)c(=O)n2c(=O)n(-c3ccnc(OC)c3)nc2n1CC(=O)NC12CC(C3CC3)(C1)C2 [I-209, N-(3-cyclopropylbicyclo[1.1.1]pentan-1-yl)-2-(7-ethyl-6-((1S,6S)-5-(5-hydroxy-6-methylpyrimidine-4-carbonyl)-2,5-diazabicyclo[4.2.0]octan-2-yl)-2-(2-methoxypyridin-4-yl)-3,5-dioxo-2,3-dihydro-[1,2,4]triazolo[4,3-a]pyrimidin-8(5H)-yl)acetamide]
> 5 µM	0.005 to 0.05 µM	CCc1c(N2CCN(C(=O)c3ncnc(C)c3O)[C@H]3CC[C@@H]32)c(=O)c2nn(-c3ccnc(OC(F)F)c3)nc2n1CC(=O)NC12CC(C3CC3)(C1)C2 [I-223, N-(3-cyclopropylbicyclo[1.1.1]pentan-1-yl)-2-(2-(2-(difluoromethoxy)pyridin-4-yl)-5-ethyl-6-((1S,6S)-5-(5-hydroxy-6-methylpyrimidine-4-carbonyl)-2,5-diazabicyclo[4.2.0]octan-2-yl)-7-oxo-2,7-dihydro-4H-[1,2,3]triazolo[4,5-b]pyridin-4-yl)acetamide]
> 5 µM	0.005 to 0.05 µM	CCc1c(N2CCN(C(=O)c3c(OC)ccnc3O)[C@H]3CC[C@@H]32)c(=O)c2nn(C3=CCOCC3)nc2n1CC(=O)NC12CC(C(C)C)(C1)C2 [I-205, 2-(2-(3,6-dihydro-2H-pyran-4-yl)-5-ethyl-6-((1S,6S)-5-(2-hydroxy-4-methoxynicotinoyl)-2,5-diazabicyclo[4.2.0]octan-2-yl)-7-oxo-2,7-dihydro-4H-[1,2,3]triazolo[4,5-b]pyridin-4-yl)-N-(3-isopropylbicyclo[1.1.1]pentan-1-yl)acetamide]
